Experimental data as given in ChEMBL document CHEMBL3991601, “The target landscape of clinical kinase drugs” (Science, 2017).
Counter-ions that a name gives are not always drawn. Activity calls are given as the source filed them. Rule as the data show it, for most assays here: actives have a measured Kd and inactives only a lower limit.

Legend:
[1] = target: Proto-oncogene tyrosine-protein kinase receptor Ret (Homo sapiens, UniProt P07949)
[2] = target: Cyclin-dependent kinase 7 (Homo sapiens, UniProt P50613)
Chain of Cyclin-dependent kinase 7 (P50613 whole entry): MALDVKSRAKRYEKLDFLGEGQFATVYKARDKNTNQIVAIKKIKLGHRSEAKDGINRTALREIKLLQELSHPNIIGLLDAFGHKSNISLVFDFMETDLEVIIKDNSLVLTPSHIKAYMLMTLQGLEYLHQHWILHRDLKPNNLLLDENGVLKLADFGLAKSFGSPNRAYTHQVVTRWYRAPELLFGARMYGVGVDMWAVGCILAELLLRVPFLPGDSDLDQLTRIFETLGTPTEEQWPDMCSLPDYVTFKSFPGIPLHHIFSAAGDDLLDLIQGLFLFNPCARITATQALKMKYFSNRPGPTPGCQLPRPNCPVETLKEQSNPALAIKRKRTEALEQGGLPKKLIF

[3] = target: T1, Probable ATP-dependent RNA helicase DDX6 (Homo sapiens, UniProt P26196)
T1 sequence (P26196 whole entry): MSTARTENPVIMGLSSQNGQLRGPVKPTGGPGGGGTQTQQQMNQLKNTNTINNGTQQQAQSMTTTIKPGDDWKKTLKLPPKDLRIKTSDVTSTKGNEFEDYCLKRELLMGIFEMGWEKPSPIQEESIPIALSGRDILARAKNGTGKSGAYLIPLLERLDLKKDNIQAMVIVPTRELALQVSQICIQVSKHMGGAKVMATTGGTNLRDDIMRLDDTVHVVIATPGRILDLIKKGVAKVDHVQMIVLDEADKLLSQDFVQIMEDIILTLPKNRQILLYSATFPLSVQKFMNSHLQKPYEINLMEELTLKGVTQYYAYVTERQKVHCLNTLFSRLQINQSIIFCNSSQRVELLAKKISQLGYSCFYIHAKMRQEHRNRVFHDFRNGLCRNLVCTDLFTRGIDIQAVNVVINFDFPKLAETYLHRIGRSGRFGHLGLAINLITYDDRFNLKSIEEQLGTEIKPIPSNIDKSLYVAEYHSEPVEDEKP

[4] = target: Cyclin-dependent kinase 5 (Homo sapiens, UniProt Q00535)
Chain of Cyclin-dependent kinase 5 (Q00535 whole entry): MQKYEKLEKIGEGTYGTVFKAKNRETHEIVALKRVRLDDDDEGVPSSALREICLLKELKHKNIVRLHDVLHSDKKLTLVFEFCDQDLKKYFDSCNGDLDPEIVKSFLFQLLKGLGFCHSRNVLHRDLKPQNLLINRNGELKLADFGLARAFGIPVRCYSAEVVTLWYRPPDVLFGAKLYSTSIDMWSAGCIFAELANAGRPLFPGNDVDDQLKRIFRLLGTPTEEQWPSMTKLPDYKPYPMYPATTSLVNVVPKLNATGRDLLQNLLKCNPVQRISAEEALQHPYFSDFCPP

[5] = target: T2, Serine/threonine-protein kinase TAO1 (Homo sapiens, UniProt Q7L7X3)
T2 sequence (Q7L7X3 whole entry): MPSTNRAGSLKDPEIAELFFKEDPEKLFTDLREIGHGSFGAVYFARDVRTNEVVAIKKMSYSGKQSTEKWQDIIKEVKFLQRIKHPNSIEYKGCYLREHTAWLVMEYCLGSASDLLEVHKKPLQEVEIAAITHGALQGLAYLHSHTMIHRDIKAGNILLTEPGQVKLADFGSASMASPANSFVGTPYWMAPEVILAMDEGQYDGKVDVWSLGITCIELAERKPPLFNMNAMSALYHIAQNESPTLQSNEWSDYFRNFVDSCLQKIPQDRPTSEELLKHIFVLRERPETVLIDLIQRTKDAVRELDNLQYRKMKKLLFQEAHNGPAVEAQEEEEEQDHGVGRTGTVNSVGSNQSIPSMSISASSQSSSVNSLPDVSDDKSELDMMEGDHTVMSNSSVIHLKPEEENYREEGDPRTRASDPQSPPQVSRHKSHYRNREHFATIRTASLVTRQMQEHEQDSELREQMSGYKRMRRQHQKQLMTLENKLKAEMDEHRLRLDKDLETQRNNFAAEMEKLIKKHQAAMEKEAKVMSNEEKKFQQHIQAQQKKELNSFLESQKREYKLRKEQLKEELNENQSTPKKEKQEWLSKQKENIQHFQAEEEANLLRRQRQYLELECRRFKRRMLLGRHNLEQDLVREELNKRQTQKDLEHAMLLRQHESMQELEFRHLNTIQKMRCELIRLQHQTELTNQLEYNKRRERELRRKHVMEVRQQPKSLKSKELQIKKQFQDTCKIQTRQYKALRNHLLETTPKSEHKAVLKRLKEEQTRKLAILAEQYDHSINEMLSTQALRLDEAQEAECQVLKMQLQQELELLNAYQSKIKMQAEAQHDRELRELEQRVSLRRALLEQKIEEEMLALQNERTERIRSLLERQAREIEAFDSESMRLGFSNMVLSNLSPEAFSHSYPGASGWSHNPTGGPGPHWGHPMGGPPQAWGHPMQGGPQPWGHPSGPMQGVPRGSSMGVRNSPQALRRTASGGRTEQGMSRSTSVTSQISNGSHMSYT

[6] = target: S-adenosylmethionine synthase isoform type-2 (Homo sapiens, UniProt P31153)
Chain of S-adenosylmethionine synthase isoform type-2 (P31153 whole entry, canonical isoform): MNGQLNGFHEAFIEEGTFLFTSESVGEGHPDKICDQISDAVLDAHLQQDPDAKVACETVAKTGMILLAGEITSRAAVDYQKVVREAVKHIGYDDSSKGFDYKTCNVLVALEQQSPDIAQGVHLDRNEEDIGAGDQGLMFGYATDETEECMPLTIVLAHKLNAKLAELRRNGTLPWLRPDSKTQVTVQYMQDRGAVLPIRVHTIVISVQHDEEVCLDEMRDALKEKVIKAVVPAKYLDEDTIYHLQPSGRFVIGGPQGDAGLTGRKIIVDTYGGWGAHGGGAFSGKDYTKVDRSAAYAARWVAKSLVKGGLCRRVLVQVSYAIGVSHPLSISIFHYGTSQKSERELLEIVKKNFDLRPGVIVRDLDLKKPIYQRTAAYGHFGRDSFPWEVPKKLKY

[7] = target: T3, Acyl-CoA dehydrogenase family member 10 (Homo sapiens, UniProt Q6JQN1)
T3 sequence (Q6JQN1 whole entry): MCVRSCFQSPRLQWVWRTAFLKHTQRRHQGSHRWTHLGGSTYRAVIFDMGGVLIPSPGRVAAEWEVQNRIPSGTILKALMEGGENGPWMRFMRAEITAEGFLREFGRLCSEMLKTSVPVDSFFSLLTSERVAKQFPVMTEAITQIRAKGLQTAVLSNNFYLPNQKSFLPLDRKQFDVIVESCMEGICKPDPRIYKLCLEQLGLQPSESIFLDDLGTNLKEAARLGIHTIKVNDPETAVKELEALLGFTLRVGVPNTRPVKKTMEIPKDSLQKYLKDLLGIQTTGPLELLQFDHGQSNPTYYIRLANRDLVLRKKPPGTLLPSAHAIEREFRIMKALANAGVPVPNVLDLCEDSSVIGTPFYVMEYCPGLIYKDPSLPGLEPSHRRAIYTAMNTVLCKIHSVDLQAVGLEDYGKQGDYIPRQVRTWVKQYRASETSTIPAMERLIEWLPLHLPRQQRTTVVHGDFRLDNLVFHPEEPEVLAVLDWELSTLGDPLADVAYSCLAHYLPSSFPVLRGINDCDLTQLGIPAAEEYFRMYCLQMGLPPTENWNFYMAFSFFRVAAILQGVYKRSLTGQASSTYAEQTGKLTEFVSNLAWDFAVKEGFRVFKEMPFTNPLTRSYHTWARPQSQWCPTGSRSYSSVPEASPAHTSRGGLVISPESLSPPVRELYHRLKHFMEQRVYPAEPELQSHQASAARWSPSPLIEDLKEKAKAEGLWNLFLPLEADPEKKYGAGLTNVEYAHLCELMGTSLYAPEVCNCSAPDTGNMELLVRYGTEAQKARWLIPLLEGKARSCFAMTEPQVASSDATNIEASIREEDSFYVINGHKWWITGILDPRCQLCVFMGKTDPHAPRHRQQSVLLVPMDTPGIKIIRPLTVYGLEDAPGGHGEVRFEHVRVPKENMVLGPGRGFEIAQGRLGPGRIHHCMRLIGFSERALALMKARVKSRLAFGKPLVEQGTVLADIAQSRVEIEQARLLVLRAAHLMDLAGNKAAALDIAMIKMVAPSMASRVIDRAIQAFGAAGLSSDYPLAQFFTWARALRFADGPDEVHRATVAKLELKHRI
Also: in the data inactive means no Kd found up to 30 µM.

Chain of Proto-oncogene tyrosine-protein kinase receptor Ret (P07949 whole entry): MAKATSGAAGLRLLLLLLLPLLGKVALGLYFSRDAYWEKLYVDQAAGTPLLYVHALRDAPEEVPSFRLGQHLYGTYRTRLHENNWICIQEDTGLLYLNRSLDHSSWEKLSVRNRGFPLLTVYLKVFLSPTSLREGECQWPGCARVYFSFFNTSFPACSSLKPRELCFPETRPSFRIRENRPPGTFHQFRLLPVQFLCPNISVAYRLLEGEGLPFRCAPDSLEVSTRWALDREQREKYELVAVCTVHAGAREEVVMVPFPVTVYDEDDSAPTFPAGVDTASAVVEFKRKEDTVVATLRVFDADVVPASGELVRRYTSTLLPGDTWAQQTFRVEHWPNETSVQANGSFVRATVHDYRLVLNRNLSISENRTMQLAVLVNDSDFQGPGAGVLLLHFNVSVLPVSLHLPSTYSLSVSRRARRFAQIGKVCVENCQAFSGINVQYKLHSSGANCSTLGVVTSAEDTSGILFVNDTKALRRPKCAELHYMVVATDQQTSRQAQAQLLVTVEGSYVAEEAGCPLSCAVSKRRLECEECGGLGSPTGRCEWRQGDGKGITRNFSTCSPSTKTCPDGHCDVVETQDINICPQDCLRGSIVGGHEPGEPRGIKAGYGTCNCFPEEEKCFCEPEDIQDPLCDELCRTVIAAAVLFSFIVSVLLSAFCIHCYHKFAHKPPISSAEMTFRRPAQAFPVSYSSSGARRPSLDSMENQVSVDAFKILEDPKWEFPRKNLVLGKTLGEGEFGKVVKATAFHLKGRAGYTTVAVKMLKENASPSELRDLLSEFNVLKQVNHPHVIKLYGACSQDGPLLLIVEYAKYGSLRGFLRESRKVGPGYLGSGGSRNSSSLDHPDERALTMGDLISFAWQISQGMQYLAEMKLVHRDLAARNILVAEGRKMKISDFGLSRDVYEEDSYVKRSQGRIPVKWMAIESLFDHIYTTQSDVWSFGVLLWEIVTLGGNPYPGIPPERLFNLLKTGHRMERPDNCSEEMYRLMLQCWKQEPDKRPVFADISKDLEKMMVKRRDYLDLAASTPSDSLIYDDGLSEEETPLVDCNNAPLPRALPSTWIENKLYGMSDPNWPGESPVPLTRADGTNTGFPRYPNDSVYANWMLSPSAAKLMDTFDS

Row | SMILES | Kd [1] | Kd [2] | Kd [3] | Kd [4] | Kd [5] | Kd [6] | Kd [7]
1 | Cn1cc(-c2cnc3ccc4ccc(CS(=O)(=O)NCc5ccccn5)cc4c(=O)c3c2)cn1 [MK-8033] | > 30 µM (inactive) | > 30 µM (inactive) | > 30 µM (inactive) | > 30 µM (inactive) | > 30 µM (inactive) | > 30 µM (inactive) | > 30 µM (inactive)
2 | Cc1nc2cc(-n3ncc(C(=O)c4cc5ccccc5[nH]4)c3N)ccc2[nH]1 [FGFR INHIBITOR DEBIO 1347] | 0.783 µM (active) | > 30 µM (inactive) | > 30 µM (inactive) | > 30 µM (inactive) | > 30 µM (inactive) | > 30 µM (inactive) | > 30 µM (inactive)
3 | N#CC1(c2ccc(NC(=O)c3cccnc3NCc3ccncc3)cc2)CCCC1 [RIVOCERANIB] | 0.111 µM (active) | > 30 µM (inactive) | > 30 µM (inactive) | > 30 µM (inactive) | > 30 µM (inactive) | > 30 µM (inactive) | > 30 µM (inactive)
4 | CCNC(=O)C#Cc1ccc2c(c1)NC(=O)/C2=C(\Nc1ccc(CN(C)C)cc1)c1ccccc1 | 0.227 µM (active) | > 30 µM (inactive) | > 30 µM (inactive) | > 30 µM (inactive) | > 30 µM (inactive) | > 30 µM (inactive) | > 30 µM (inactive)
5 | CO[C@H]1C[C@@H]2CC[C@@H](C)[C@@](O)(O2)C(=O)C(=O)N2CCCC[C@H]2C(=O)O[C@H]([C@H](C)C[C@@H]2CC[C@@H](O)[C@H](OC)C2)CC(=O)[C@H](C)/C=C(\C)[C@@H](O)[C@@H](OC)C(=O)[C@H](C)C[C@H](C)/C=C/C=C/C=C/1C [SIROLIMUS] | > 30 µM (inactive) | > 30 µM (inactive) | > 30 µM (inactive) | > 30 µM (inactive) | > 30 µM (inactive) | > 30 µM (inactive) | > 30 µM (inactive)
6 | Cc1cc(Nc2ncnc3ccc(NC4=NC(C)(C)CO4)cc23)ccc1Oc1ccn2ncnc2c1 [TUCATINIB] | > 30 µM (inactive) | > 30 µM (inactive) | > 30 µM (inactive) | > 30 µM (inactive) | > 30 µM (inactive) | > 30 µM (inactive) | > 30 µM (inactive)
7 | CCS(=O)(=O)c1cccc(-c2cc(C(=O)NC3CCN(C)CC3)c(C)c3[nH]c4ncc(C)cc4c23)c1 [TAK-901] | 0.111 µM (active) | 0.205 µM (active) | > 30 µM (inactive) | > 30 µM (inactive) | > 30 µM (inactive) | > 30 µM (inactive) | 
8 | O=C(Cc1ccc(-c2ccc(OCCN3CCOCC3)cc2)cn1)NCc1ccccc1 [TIRBANIBULIN] | > 30 µM (inactive) | > 30 µM (inactive) | > 30 µM (inactive) | > 30 µM (inactive) | > 30 µM (inactive) | > 30 µM (inactive) | > 30 µM (inactive)
9 | CCS(=O)(=O)N1CCN(c2ccc(Nc3ncc(C(N)=O)c(NC4CC4)n3)cc2)CC1 [Cerdulatinib Hydrochloride] | 1.23 µM (active) | > 30 µM (inactive) | > 30 µM (inactive) | > 30 µM (inactive) | 2.17 µM (active) | > 30 µM (inactive) | > 30 µM (inactive)
10 | NC1(c2ccc(-c3nc4ccn5c(=O)[nH]nc5c4cc3-c3ccccc3)cc2)CCC1 [MK-2206] | > 30 µM (inactive) | > 30 µM (inactive) | > 30 µM (inactive) | > 30 µM (inactive) | > 30 µM (inactive) | > 30 µM (inactive) | > 30 µM (inactive)
11 | CO[C@H]1C[C@@H]2CC[C@@H](C)[C@@](O)(O2)C(=O)C(=O)N2CCCC[C@H]2C(=O)O[C@H]([C@H](C)C[C@@H]2CC[C@@H](OP(C)(C)=O)[C@H](OC)C2)CC(=O)[C@H](C)/C=C(\C)[C@@H](O)[C@@H](OC)C(=O)[C@H](C)C[C@H](C)/C=C/C=C/C=C/1C [RIDAFOROLIMUS] | > 30 µM (inactive) | > 30 µM (inactive) | > 30 µM (inactive) | > 30 µM (inactive) | > 30 µM (inactive) |  | > 30 µM (inactive)
12 | COc1ncc(-c2ccc3nccc(-c4ccnnc4)c3c2)cc1NS(=O)(=O)c1ccc(F)cc1F [OMIPALISIB] | > 30 µM (inactive) | > 30 µM (inactive) | > 30 µM (inactive) | > 30 µM (inactive) | > 30 µM (inactive) | > 30 µM (inactive) | 
13 | COc1cc([C@@H]2c3cc4c(cc3[C@H](O)[C@H]3COC(=O)[C@@H]23)OCO4)cc(OC)c1OC [AXL-1717] | > 30 µM (inactive) | > 30 µM (inactive) | > 30 µM (inactive) | > 30 µM (inactive) | > 30 µM (inactive) | > 30 µM (inactive) | 
14 | Cc1csc(-c2nnc(Nc3ccc(Oc4ncccc4-c4ccnc(N)n4)cc3)c3ccccc23)c1 [AMG-900] | 1.14 µM (active) | > 30 µM (inactive) | > 30 µM (inactive) | > 30 µM (inactive) | 1.9 µM (active) |  | > 30 µM (inactive)
15 | Nc1ncnc2c1c(-c1cccc(OCc3ccccc3)c1)cn2[C@H]1C[C@@H](CN2CCC2)C1 [AEW-541] | 23.2 µM (active) | > 30 µM (inactive) | > 30 µM (inactive) | > 30 µM (inactive) | > 30 µM (inactive) |  | > 30 µM (inactive)
16 | C[C@@H](NC(=O)c1ncnc(N)c1Cl)c1ncc(C(=O)Nc2cc(C(F)(F)F)c(Cl)cn2)s1 [TOVORAFENIB] | > 30 µM (inactive) | > 30 µM (inactive) |  | > 30 µM (inactive) | > 30 µM (inactive) | > 30 µM (inactive) | > 30 µM (inactive)
17 | NC(=O)Nc1cc(-c2cccc(F)c2)sc1C(=O)N[C@H]1CCCNC1 [AZD-7762] | 0.023 µM (active) | > 30 µM (inactive) | > 30 µM (inactive) | > 30 µM (inactive) | > 30 µM (inactive) |  | > 30 µM (inactive)
18 | FC(F)(F)c1ccc(/C=C/c2nc(COc3ccc(CCCCn4ccnn4)cc3)co2)cc1 [MUBRITINIB] | > 30 µM (inactive) | > 30 µM (inactive) | > 30 µM (inactive) | > 30 µM (inactive) | > 30 µM (inactive) |  | > 30 µM (inactive)
